Where two headings read alike, the source gives them in different places.
Molecular target: human GABA A receptor α5β3γ2 (α5 subunit) (Homo sapiens, UniProt P18507+P31644)
Test: biochemical
Assay type: binding
Description: The affinity of compounds at GABA A receptor subtypes was measured by competition for [3H]flumazenil (85 Ci/mmol; Roche) binding to HEK293 cells expressing rat (stably transfected) or human (transiently transfected) receptors of composition α1β3γ2, α2β3γ2, α3β3γ2 and α5β3γ2.
Cell pellets were suspended in Krebs-tris buffer (4.8 mM KCl, 1.2 mM CaCl2, 1.2 mM MgCl2, 120 mM NaCl, 15 mM Tris; pH 7.5; binding assay buffer), homogenized by polytron for ca. 20 sec on ice and centrifuged for 60 min at 4° C. (50000 g; Sorvall, rotor: SM24=20000 rpm). The cell pellets were resuspended in Krebs-tris buffer and homogenized by polytron for ca. 15 sec on ice. Protein was measured (Bradford method, Bio-Rad) and aliquots of 1 mL were prepared and stored at −80° C.
Assays were incubated to equilibrium for 1 hour at 4° C. and harvested onto GF/C uni-filters (Packard) by filtration using a Packard harvester and washing with ice-cold wash buffer (50 mM Tris; pH 7.5). After drying, filter-retained radioactivity was detected by liquid scintillation counting. Ki values were calculated using Excel-Fit (Microsoft) and are the means of two determinations.

[1] = competition for [3H]flumazenil binding, HEK293 cells transiently expressing human receptors, means of two determinations, read-out: hKi

Sequence of human GABA A receptor α5β3γ2 (α5 subunit) (P31644 32-462): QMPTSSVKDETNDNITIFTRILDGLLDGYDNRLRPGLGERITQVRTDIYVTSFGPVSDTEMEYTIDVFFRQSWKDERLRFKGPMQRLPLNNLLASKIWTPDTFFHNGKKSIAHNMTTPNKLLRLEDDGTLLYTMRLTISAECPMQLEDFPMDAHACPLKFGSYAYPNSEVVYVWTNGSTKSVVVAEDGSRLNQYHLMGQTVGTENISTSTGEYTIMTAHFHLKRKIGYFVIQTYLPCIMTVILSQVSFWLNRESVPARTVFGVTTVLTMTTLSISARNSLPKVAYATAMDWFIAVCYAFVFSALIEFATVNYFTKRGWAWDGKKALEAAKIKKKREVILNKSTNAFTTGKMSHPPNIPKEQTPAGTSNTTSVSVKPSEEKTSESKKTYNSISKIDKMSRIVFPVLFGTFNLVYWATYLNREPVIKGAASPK
Sequence of human GABA A receptor α5β3γ2 (α5 subunit) (P28472 26-473 partner): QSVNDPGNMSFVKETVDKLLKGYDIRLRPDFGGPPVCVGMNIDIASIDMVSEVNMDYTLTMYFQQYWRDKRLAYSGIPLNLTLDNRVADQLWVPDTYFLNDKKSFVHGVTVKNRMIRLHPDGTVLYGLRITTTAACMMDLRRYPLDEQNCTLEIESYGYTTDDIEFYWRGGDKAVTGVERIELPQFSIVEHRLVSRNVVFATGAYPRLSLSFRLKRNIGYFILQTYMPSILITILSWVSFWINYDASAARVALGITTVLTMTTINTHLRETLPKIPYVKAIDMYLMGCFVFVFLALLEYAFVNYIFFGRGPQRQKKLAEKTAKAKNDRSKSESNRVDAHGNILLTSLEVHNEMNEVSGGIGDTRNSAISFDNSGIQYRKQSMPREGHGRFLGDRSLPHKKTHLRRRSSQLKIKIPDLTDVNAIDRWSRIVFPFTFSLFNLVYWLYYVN
Sequence of human GABA A receptor α5β3γ2 (α5 subunit) (P18507 40-475): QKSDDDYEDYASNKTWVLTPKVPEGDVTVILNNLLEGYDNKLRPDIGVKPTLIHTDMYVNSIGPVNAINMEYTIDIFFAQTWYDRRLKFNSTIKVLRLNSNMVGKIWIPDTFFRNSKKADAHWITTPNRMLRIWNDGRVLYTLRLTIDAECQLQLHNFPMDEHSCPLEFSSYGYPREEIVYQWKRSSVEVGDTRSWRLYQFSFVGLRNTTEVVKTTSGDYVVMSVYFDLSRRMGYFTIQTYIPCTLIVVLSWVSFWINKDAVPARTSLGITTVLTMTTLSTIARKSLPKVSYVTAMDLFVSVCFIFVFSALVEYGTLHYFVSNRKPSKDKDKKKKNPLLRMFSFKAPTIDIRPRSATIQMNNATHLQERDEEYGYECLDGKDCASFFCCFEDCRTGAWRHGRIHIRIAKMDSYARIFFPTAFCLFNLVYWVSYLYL

Row | SMILES | Ki [1] | Ki
1 | Cc1cc(OCc2c(-c3ccccc3)noc2C)nnc1C(=O)NC(C)C [Example 46, 4-Methyl-6-(5-methyl-3-phenyl-isoxazol-4-ylmethoxy)-pyridazine-3-carboxylic acid isopropylamide] | 3.6 nM | –
2 | CCOC(=O)c1ccc(OCc2c(-c3cccc(F)c3)noc2C)nn1 [Example 49, 6-[3-(3-Fluoro-phenyl)-5-methyl-isoxazol-4-ylmethoxy]-pyridazine-3-carboxylic acid ethyl ester] | 9.6 nM | –
3 | CNC(=O)c1ccc(OCc2c(-c3cccc(F)c3)noc2C)nn1 [Example 50, 6-[3-(3-Fluoro-phenyl)-5-methyl-isoxazol-4-ylmethoxy]-pyridazine-3-carboxylic acid methylamide] | 4.1 nM | –
4 | CCNC(=O)c1ccc(OCc2c(-c3cccc(F)c3)noc2C)nn1 [Example 51, 6-[3-(3-Fluoro-phenyl)-5-methyl-isoxazol-4-ylmethoxy]-pyridazine-3-carboxylic acid ethylamide] | 6.1 nM | –
5 | Cc1onc(-c2cccc(F)c2)c1COc1ccc(C(=O)NCCO)nn1 [Example 52, 6-[3-(3-Fluoro-phenyl)-5-methyl-isoxazol-4-ylmethoxy]-pyridazine-3-carboxylic acid (2-hydroxy-ethyl)-amide] | 6.6 nM | –
6 | Cc1onc(-c2cccc(F)c2)c1COc1ccc(C(=O)NC(C)C)nn1 [Example 54, 6-[3-(3-Fluoro-phenyl)-5-methyl-isoxazol-4-ylmethoxy]-pyridazine-3-carboxylic acid isopropylamide] | 8.4 nM | –
7 | Cc1onc(-c2cccc(F)c2)c1COc1ccc(C(=O)NC2CC2)nn1 [Example 55, 6-[3-(3-Fluoro-phenyl)-5-methyl-isoxazol-4-ylmethoxy]-pyridazine-3-carboxylic acid cyclopropylamide] | 6.7 nM | –
8 | Cc1onc(-c2ccc(F)cc2)c1COc1ccc(Cl)nn1 [Example 57, 3-Chloro-6-[3-(4-fluoro-phenyl)-5-methyl-isoxazol-4-ylmethoxy]-pyridazine] | 4.6 nM | –
9 | CCOC(=O)c1ccc(OCc2c(-c3ccc(F)cc3)noc2C)nn1 [Example 58, 6-[3-(4-Fluoro-phenyl)-5-methyl-isoxazol-4-ylmethoxy]-pyridazine-3-carboxylic acid ethyl ester] | 3.3 nM | –
10 | Cc1onc(-c2ccc(F)cc2)c1COc1ccc(C(=O)NCC2CC2)nn1 [Example 59, 6-[3-(4-Fluoro-phenyl)-5-methyl-isoxazol-4-ylmethoxy]-pyridazine-3-carboxylic acid cyclopropylmethyl-amide] | 4.6 nM | –
11 | Cc1onc(-c2ccc(F)cc2)c1COc1ccc(C(=O)NCC(F)(F)F)nn1 [Example 60, 6-[3-(4-Fluoro-phenyl)-5-methyl-isoxazol-4-ylmethoxy]-pyridazine-3-carboxylic acid (2,2,2-trifluoro-ethyl)-amide] | 3.5 nM | –
12 | Cc1onc(-c2ccc(F)cc2)c1COc1ccc(C(=O)NC2CC2)nn1 [Example 62, 6-[3-(4-Fluoro-phenyl)-5-methyl-isoxazol-4-ylmethoxy]-pyridazine-3-carboxylic acid cyclopropylamide] | 1.7 nM | –
13 | Cc1onc(-c2ccc(F)cc2)c1COc1ccc(C(=O)NC2CCOCC2)nn1 [Example 63, 6-[3-(4-Fluoro-phenyl)-5-methyl-isoxazol-4-ylmethoxy]-pyridazine-3-carboxylic acid (tetrahydro-pyran-4-yl)-amide] | 2.4 nM | –
14 | Cc1onc(-c2ccc(F)cc2)c1COc1ccc(C(=O)N2CCS(=O)(=O)CC2)nn1 [Example 66, (1,1-Dioxo-1λ6-thiomorpholin-4-yl)-{6-[3-(4-fluoro-phenyl)-5-methyl-isoxazol-4-ylmethoxy]-pyridazin-3-yl}-methanone] | 11.7 nM | –
15 | Cc1onc(-c2ccccc2)c1COc1ccc2nncn2n1 [Example 86, 6-(5-Methyl-3-phenyl-isoxazol-4-ylmethoxy)-[1,2,4]triazolo[4,3-b]pyridazine] | 6.6 nM | –
16 | Cc1onc(-c2ccc(F)cc2)c1COc1ccc2nncn2n1 [Example 91, 6-[3-(4-Fluoro-phenyl)-5-methyl-isoxazol-4-ylmethoxy]-[1,2,4]triazolo[4,3-b]pyridazine] | 7.5 nM | –
17 | Cc1onc(-c2ccccn2)c1COc1ccc(Cl)nn1 [Example 92, 3-Chloro-6-(5-methyl-3-pyridin-2-yl-isoxazol-4-ylmethoxy)-pyridazine] | 3.8 nM | –
18 | CCOC(=O)c1ccc(OCc2c(-c3ccccn3)noc2C)nn1 [Example 93, 6-(5-Methyl-3-pyridin-2-yl-isoxazol-4-ylmethoxy)-pyridazine-3-carboxylic acid ethyl ester] | 2.9 nM | –

Row | SMILES | Ki [1] | Ki
19 | Cc1onc(-c2ccccn2)c1COc1ccc(C(=O)NC2CCOCC2)nn1 [Example 94, 6-(5-Methyl-3-pyridin-2-yl-isoxazol-4-ylmethoxy)-pyridazine-3-carboxylic acid (tetrahydro-pyran-4-yl)-amide] | 2.9 nM | –
20 | Cc1onc(-c2ccccn2)c1COc1ccc(C(=O)NC(C)C)nn1 [Example 95, 6-(5-Methyl-3-pyridin-2-yl-isoxazol-4-ylmethoxy)-pyridazine-3-carboxylic acid isopropylamide] | 2.7 nM | –
21 | Cc1onc(-c2ccccn2)c1COc1ccc(C(=O)N2CCOCC2)nn1 [Example 96, [6-(5-Methyl-3-pyridin-2-yl-isoxazol-4-ylmethoxy)-pyridazin-3-yl]-morpholin-4-yl-methanone] | – | 25.9 nM
22 | Cc1onc(-c2ccccn2)c1COc1ccc(C(=O)NC2CC2)nn1 [Example 97, 6-(5-Methyl-3-pyridin-2-yl-isoxazol-4-ylmethoxy)-pyridazine-3-carboxylic acid cyclopropylamide] | 1.6 nM | –
23 | Cc1onc(-c2ccccn2)c1COc1ccc(C(=O)NCC(F)(F)F)nn1 [Example 98, 6-(5-Methyl-3-pyridin-2-yl-isoxazol-4-ylmethoxy)-pyridazine-3-carboxylic acid (2,2,2-trifluoro-ethyl)-amide] | 2.8 nM | –
24 | Cc1onc(-c2ccccn2)c1COc1ccc(C(=O)N2CCS(=O)(=O)CC2)nn1 [Example 99, (1,1-Dioxo-1λ6-thiomorpholin-4-yl)-[6-(5-methyl-3-pyridin-2-yl-isoxazol-4-ylmethoxy)-pyridazin-3-yl]-methanone] | 18.1 nM | –
25 | Cc1onc(-c2ccccn2)c1COc1ccc(C(=O)NCC2CC2)nn1 [Example 100, 6-(5-Methyl-3-pyridin-2-yl-isoxazol-4-ylmethoxy)-pyridazine-3-carboxylic acid cyclopropylmethyl-amide] | 4.1 nM | –
26 | Cc1onc(-c2ccccn2)c1COc1ccc(C(=O)NCCO)nn1 [Example 101, 6-(5-Methyl-3-pyridin-2-yl-isoxazol-4-ylmethoxy)-pyridazine-3-carboxylic acid (2-hydroxy-ethyl)-amide] | 1.4 nM | –
27 | CNC(=O)c1ccc(OCc2c(-c3ccccn3)noc2C)nn1 [Example 102, 6-(5-Methyl-3-pyridin-2-yl-isoxazol-4-ylmethoxy)-pyridazine-3-carboxylic acid methylamide] | 0.9 nM | –
28 | CCNC(=O)c1ccc(OCc2c(-c3ccccn3)noc2C)nn1 [Example 103, 6-(5-Methyl-3-pyridin-2-yl-isoxazol-4-ylmethoxy)-pyridazine-3-carboxylic acid ethylamide] | 1.5 nM | –
29 | Cc1onc(-c2ccccn2)c1COc1ccc(C(=O)N2CCSCC2)nn1 [Example 104, [6-(5-Methyl-3-pyridin-2-yl-isoxazol-4-ylmethoxy)-pyridazin-3-yl]-thiomorpholin-4-yl-methanone] | 27.8 nM | –
30 | Cc1onc(-c2ccccn2)c1COc1ccc(C(=O)NC(C)(C)CO)nn1 [Example 105, 6-(5-Methyl-3-pyridin-2-yl-isoxazol-4-ylmethoxy)-pyridazine-3-carboxylic acid (2-hydroxy-1,1-dimethyl-ethyl)-amide] | 4 nM | –
31 | COCCNC(=O)c1ccc(OCc2c(-c3ccccn3)noc2C)nn1 [Example 106, 6-(5-Methyl-3-pyridin-2-yl-isoxazol-4-ylmethoxy)-pyridazine-3-carboxylic acid (2-methoxy-ethyl)-amide] | 1.6 nM | –
32 | Cc1onc(-c2ccncc2)c1COc1ccc(C(=O)NCCO)nn1 [Example 107, 6-(5-Methyl-3-pyridin-4-yl-isoxazol-4-ylmethoxy)-pyridazine-3-carboxylic acid (2-hydroxy-ethyl)-amide] | 23.3 nM | –
33 | CNC(=O)c1ccc(OCc2c(-c3ccncc3)noc2C)nn1 [Example 108, 6-(5-Methyl-3-pyridin-4-yl-isoxazol-4-ylmethoxy)-pyridazine-3-carboxylic acid methylamide] | 9 nM | –
34 | CCNC(=O)c1ccc(OCc2c(-c3ccncc3)noc2C)nn1 [Example 109, 6-(5-Methyl-3-pyridin-4-yl-isoxazol-4-ylmethoxy)-pyridazine-3-carboxylic acid ethylamide] | 14.2 nM | –
35 | Cc1onc(-c2ccc(F)cn2)c1COc1ccc(Cl)nn1 [Example 110, 3-Chloro-6-[3-(5-fluoro-pyridin-2-yl)-5-methyl-isoxazol-4-ylmethoxy]-pyridazine] | 1.6 nM | –
36 | CCOC(=O)c1ccc(OCc2c(-c3ccc(F)cn3)noc2C)nn1 [Example 111, 6-[3-(5-Fluoro-pyridin-2-yl)-5-methyl-isoxazol-4-ylmethoxy]-pyridazine-3-carboxylic acid ethyl ester] | 1.2 nM | –
